The source of these data is patent publication US11766649B2, “Coating method” (ASTON PARTICLE TECHNOLOGIES LIMITED, priority 2017, dated 2023).

Assay type in all cases: physicochemical
A short description of data set [1]: USP II basket dissolution of piroxicam/PVP powders in 0.1N hydrochloric acid. Conditions: 20 mg dose, 37° C., 50 rpm, end of the 4 h interval, FIG. 8. As for the experimental part: (§1) The dissolution rate was analysed using standard USP II dissolution apparatus using the basket assembly dissolution vessels. Standard 20 mg dose powders were investigated to mimic a patient dose, with dissolution conditions maintained at 37° C. and the basket apparatus rotated at 50 rpm in 0.1N hydrochloric acid. Powders were placed in the basket and submerged in to the dissolution apparatus and ran over 4 h. Samples were taken at predetermined time intervals, with each sample volume replaced with the same amount of fresh dissolution media to maintain sink conditions. The samples were filtered appropriately and analysed for drug content using HPLC apparatus at each of the time points. All results were taken in triplicate, and are represented in FIG. 8.

A short description of data set [2]: USP II basket dissolution of flucloxacillin sodium/polymer powders in pH 6.8 phosphate buffer. To be noted: 250 mg dose, 37° C., 50 rpm, 60 mins, FIG. 13. As for the experimental part: as §1, with “250” for “20”, “pH 6.8 phosphate buffer.” for “0.1N hydrochloric acid.”, “60 mins.” for “4 h.”, “and are represented in FIG. 8.” left out
Data set [3] in a line: USP II basket dissolution of carbamazepine/PVP powders in distilled water. Conditions: 200 mg dose, 37° C., 50 rpm, over the 4 h time period, FIG. 7. As for the experimental part:
as §1, with “200” for “20”, “distilled water.” for “0.1N hydrochloric acid.”, “7.” for “8.”

Data set [4] is described as follows: Dissolution of carbamazepine dry coated with micronized sodium lauryl sulphate (FIG. 10).
Data set [5] can be described thus: USP II basket dissolution of phenytoin/PVP powders in distilled water. Conditions: 200 mg dose, 37° C., 50 rpm, 4 h, FIG. 9. As for the experimental part:
as §1, with “200” for “20”, “distilled water.” for “0.1N hydrochloric acid.”, “9.” for “8.”

On to `CN1C(C(=O)Nc2ccccn2)=C(O)c2ccccc2S1(=O)=O` [control piroxicam, piroxicam], for which the drug release in data set [1] is given as 29.7%.
For the molecule `Cc1onc(-c2c(F)cccc2Cl)c1C(=O)N[C@@H]1C(=O)N2[C@@H]1SC(C)(C)[C@@H]2C(=O)O` [flucloxacillin sodium], the “release of flucloxacillin sodium” value in data set [2] is “full release within a minute”.
With `NC(=O)N1c2ccccc2C=Cc2ccccc21` [micronized carbamazepine, carbamazepine], the drug release result in data set [3] is listed as “very poor release”.
Regarding `NC(=O)N1c2ccccc2C=Cc2ccccc21` [off the shelf carbamazepine (CBZ), carbamazepine], the drug release result in data set [4] is on record as “around 38%”.
Take `O=C1NC(=O)C(c2ccccc2)(c2ccccc2)N1` [phenytoin alone, phenytoin]: the release in data set [5] was 4.7%.
